The source of these data is PubChem BioAssay (NCI).

Among the test systems are SR leukemia; DU-145 prostate; T-47D breast; HL-60(TB) leukemia; UO-31 renal; COLO 205 colon; OVCAR-5 ovarian; SF-268 CNS; LOX IMVI melanoma; NCI-H23 lung.
What all share (assay): DTP human tumour cell line panel, 48 h

SMILES strings stand for the structures.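 Interpolation was linear, between the two tested concentrations surrounding the appropriate level; five concentrations were tested over 48 hours in 96-well plates. GI50 = concentration required for 50% inhibition of growth. At the TGI there is no net growth.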

As for `Fc1ccc(Nc2nc(Nc3ccc(-c4nc5ccccc5[nH]4)cc3)nc(N3CCCC3)n2)cc1`, the GI50 in the test with SR leukemia was 927 nM; in the test on DU-145 prostate it was 4210 nM; with T-47D breast it was 2280 nM; in the test on HL-60(TB) leukemia, 2640 nM; in the test with UO-31 renal it was 3130 nM; with COLO 205 colon, 1810 nM. Besides, the GI50 was 2930 nM with OVCAR-5 ovarian, 2670 nM in the test on SF-268 CNS, 1770 nM with LOX IMVI melanoma and 3360 nM in the test with NCI-H23 lung. Also, the TGI is 6.5 µM in the test on SR leukemia; 15.3 µM in the test with DU-145 prostate; 5.58 µM in the test on T-47D breast; 6.61 µM with HL-60(TB) leukemia; 14.4 µM in the test with UO-31 renal; 3.73 µM with COLO 205 colon. For the same molecule, the TGI in the test on OVCAR-5 ovarian was 8.19 µM; with SF-268 CNS, 7.99 µM; in the test with LOX IMVI melanoma, 3.55 µM; in the test on NCI-H23 lung, 16.8 µM.
For the molecule `CN(C)CCn1cc(-c2ccc3c(Nc4ccc(CC(=O)Nc5cccc(F)c5)cc4)ncnc3c2)cn1`, the GI50 was 1530 nM in the test with SR leukemia; 1670 nM in the test on DU-145 prostate; 1410 nM in the test with T-47D breast; 1950 nM in the test with HL-60(TB) leukemia; 5670 nM in the test on UO-31 renal; 55.9 nM in the test on COLO 205 colon. The GI50 was 1580 nM with OVCAR-5 ovarian, 1430 nM in the test on SF-268 CNS, 1330 nM in the test with LOX IMVI melanoma and 1870 nM in the test on NCI-H23 lung. Also, the TGI in the test with SR leukemia is more than 10 µM; in the test with DU-145 prostate, 3.51 µM; with T-47D breast it was 4.54 µM; with HL-60(TB) leukemia, 4.85 µM; in the test with UO-31 renal, more than 10 µM; with COLO 205 colon, 3.22 µM. The total growth inhibition concentration (TGI) with OVCAR-5 ovarian amounted to 4.26 µM; in the test with SF-268 CNS it was 3.39 µM; with LOX IMVI melanoma it was 3.02 µM; in the test on NCI-H23 lung, 4.98 µM.
Regarding `CCOc1ccc2c(c1)/C(=C\C=C\C1CC(C)C3CC(OCC)CCC3N1CC)CC(C)N2CC` (configuration not stated), the GI50 with SR leukemia is 412 nM; in the test on DU-145 prostate, 991 nM; in the test with T-47D breast, 334 nM; in the test with HL-60(TB) leukemia, 1820 nM; in the test with UO-31 renal, 1590 nM; in the test with COLO 205 colon, 1360 nM. The GI50 with OVCAR-5 ovarian is 1230 nM; in the test on SF-268 CNS, 882 nM; in the test with LOX IMVI melanoma, 871 nM; with NCI-H23 lung, 567 nM. The total growth inhibition concentration (TGI) turned out to be 2.75 µM in the test on SR leukemia; 2.25 µM with DU-145 prostate; 2.12 µM with T-47D breast; 5.71 µM with HL-60(TB) leukemia; 3.31 µM in the test on UO-31 renal; 2.82 µM in the test on COLO 205 colon. The TGI with OVCAR-5 ovarian came to 2.64 µM; in the test on SF-268 CNS it was 2.41 µM; in the test on LOX IMVI melanoma it was 2.27 µM; in the test with NCI-H23 lung, 2.38 µM.
Take `CO/N=C1/c2cc(OC)ccc2-c2c(NOC)nc3ccccc3c21`: the GI50 is 38700 nM in the test with SR leukemia; 29200 nM with DU-145 prostate; 41200 nM in the test on T-47D breast; 28300 nM in the test with HL-60(TB) leukemia; 35400 nM in the test with UO-31 renal; 41300 nM in the test with COLO 205 colon. Further, the GI50 with OVCAR-5 ovarian was 22000 nM; in the test on SF-268 CNS, 41600 nM; in the test with LOX IMVI melanoma it was 26700 nM; in the test on NCI-H23 lung, 28600 nM. Further, the total growth inhibition concentration (TGI) with SR leukemia, in the test on DU-145 prostate, in the test on T-47D breast, in the test on HL-60(TB) leukemia, with UO-31 renal and with COLO 205 colon was more than 100 µM throughout. For the same molecule, the TGI in the test with OVCAR-5 ovarian was 71.6 µM; in the test on SF-268 CNS it was more than 100 µM; in the test with LOX IMVI melanoma it was more than 100 µM; in the test with NCI-H23 lung, 97.9 µM.
For the molecule `O=C1c2cc3c(cc2-c2c1c1ccc([N+](=O)[O-])cc1c(=O)n2CCCCl)OCO3`, the GI50 is 15.8 nM in the test on SR leukemia; 122 nM in the test on DU-145 prostate; 328 nM in the test with HL-60(TB) leukemia; 307 nM in the test with UO-31 renal; 567 nM with COLO 205 colon; 634 nM in the test with OVCAR-5 ovarian. The GI50 in the test on SF-268 CNS was 102 nM; in the test with LOX IMVI melanoma, 74.2 nM; in the test on NCI-H23 lung, 285 nM. In addition, the TGI with SR leukemia is 27.8 µM; with DU-145 prostate, more than 100 µM; in the test with T-47D breast it was more than 100 µM; in the test on HL-60(TB) leukemia, more than 28.8 µM; with UO-31 renal, more than 100 µM; in the test with COLO 205 colon, more than 100 µM. Besides, the TGI in the test with OVCAR-5 ovarian, in the test on SF-268 CNS and with LOX IMVI melanoma was more than 100 µM each time.
Consider `CC(C)(C)c1ccc(-c2nnc(SCc3ccc(Cl)cc3)n2-c2cccc(C(F)(F)F)c2)cc1`, for which the TGI in the test with SR leukemia was 31.5 µM; with DU-145 prostate it was more than 100 µM; in the test with T-47D breast, more than 100 µM; in the test with HL-60(TB) leukemia it was 14.6 µM; with UO-31 renal it was 34.2 µM; in the test with COLO 205 colon, 23.4 µM. The TGI with OVCAR-5 ovarian was more than 96.1 µM; in the test with SF-268 CNS, more than 100 µM; with LOX IMVI melanoma it was more than 100 µM; in the test with NCI-H23 lung, more than 100 µM.
As for `CCCCOC(=O)N[C@H]1CCc2cc(OC)c(OC)c(OC)c2-c2ccc(SC)c(=O)cc21`, the TGI is more than 43 µM in the test with SR leukemia; less than 0.01 µM with DU-145 prostate; 58.7 µM in the test on T-47D breast; 0.398 µM in the test with HL-60(TB) leukemia; 49.5 µM with UO-31 renal; less than 0.01 µM with COLO 205 colon. Besides, the TGI with OVCAR-5 ovarian was 91.8 µM; with SF-268 CNS, 25.1 µM; in the test on LOX IMVI melanoma it was 20.9 µM; in the test on NCI-H23 lung, 8.09 µM.
For the molecule `COc1ccccc1Nc1nc(-c2cc3cccc(C(F)(F)F)c3oc2=O)cs1`, the GI50 was 84 nM with SR leukemia; 263 nM in the test with DU-145 prostate; 53.5 nM in the test with T-47D breast; 186 nM with HL-60(TB) leukemia; 527 nM in the test on UO-31 renal; 172 nM in the test on COLO 205 colon. The GI50 in the test with OVCAR-5 ovarian is 572 nM; with SF-268 CNS, 214 nM; in the test on LOX IMVI melanoma, 140 nM; in the test with NCI-H23 lung it was 345 nM. In addition, the TGI in the test with SR leukemia was more than 100 µM; in the test with T-47D breast, more than 100 µM; with HL-60(TB) leukemia, 0.521 µM; with UO-31 renal, more than 57.1 µM; in the test with COLO 205 colon it was 0.522 µM; in the test with OVCAR-5 ovarian, more than 100 µM. In addition, the TGI is more than 100 µM with SF-268 CNS, more than 82.2 µM in the test on LOX IMVI melanoma and more than 45.9 µM in the test on NCI-H23 lung.

For orientation: GI50 means the concentration giving 50% growth inhibition. A word on the TGI: it is the concentration at which net growth stops. Read a low TGI as more potent growth arrest.
